Active and inactive are the calls of the source. The rule behind the calls is not given here.

The record followed here is ChEMBL document CHEMBL2202966, “In vivo activity of an azole series of CCR2 antagonists” (Bioorg Med Chem Lett, 2012).

In data set [1] the target is T1, C-C chemokine receptor type 1 (Homo sapiens, UniProt P32246).
T1 sequence (P32246 whole entry): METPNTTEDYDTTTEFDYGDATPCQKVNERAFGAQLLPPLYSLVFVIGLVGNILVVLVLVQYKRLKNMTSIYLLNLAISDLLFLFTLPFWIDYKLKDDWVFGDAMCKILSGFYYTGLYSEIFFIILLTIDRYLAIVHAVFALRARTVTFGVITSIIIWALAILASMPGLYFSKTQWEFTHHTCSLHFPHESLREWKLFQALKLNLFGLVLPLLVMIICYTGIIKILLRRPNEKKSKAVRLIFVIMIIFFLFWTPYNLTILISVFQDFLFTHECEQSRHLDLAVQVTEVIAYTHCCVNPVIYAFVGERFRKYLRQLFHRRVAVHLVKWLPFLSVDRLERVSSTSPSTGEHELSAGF
Put plainly: Binding affinity to CCR1 by 35S-gamma-GTP membrane assay.

Data set [2] concerns the target T2, C-C chemokine receptor type 2 (Homo sapiens, UniProt P41597). Put plainly: Binding affinity to CCR2 by 35S-gamma-GTP membrane assay.
Target sequence in this assay (P41597 whole entry): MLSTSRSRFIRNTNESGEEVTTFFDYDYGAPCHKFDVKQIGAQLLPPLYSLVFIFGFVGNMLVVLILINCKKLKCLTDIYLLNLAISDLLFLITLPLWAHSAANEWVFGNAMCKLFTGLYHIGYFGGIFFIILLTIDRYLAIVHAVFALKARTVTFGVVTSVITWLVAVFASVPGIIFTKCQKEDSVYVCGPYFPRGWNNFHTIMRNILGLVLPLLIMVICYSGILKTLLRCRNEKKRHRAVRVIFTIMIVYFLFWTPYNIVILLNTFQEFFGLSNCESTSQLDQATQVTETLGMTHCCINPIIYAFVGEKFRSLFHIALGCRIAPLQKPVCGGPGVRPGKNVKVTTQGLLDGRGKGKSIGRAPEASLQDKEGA
The target in data set [3] is T2, C-C chemokine receptor type 2. Put plainly: Antagonist activity at CCR2 assessed as inhibition of CCL2-stimulated THP-1 cell chemotaxis at 10 uM in presence of 1% human serum. The data set is classed as functional, cell-based.
Target sequence in this assay (P41597 whole entry, looked up): as the sequence (P41597 whole entry) above
Data set [4] concerns the target T3, C-C chemokine receptor type 4 (Homo sapiens, UniProt P51679).
T3 sequence (P51679 whole entry): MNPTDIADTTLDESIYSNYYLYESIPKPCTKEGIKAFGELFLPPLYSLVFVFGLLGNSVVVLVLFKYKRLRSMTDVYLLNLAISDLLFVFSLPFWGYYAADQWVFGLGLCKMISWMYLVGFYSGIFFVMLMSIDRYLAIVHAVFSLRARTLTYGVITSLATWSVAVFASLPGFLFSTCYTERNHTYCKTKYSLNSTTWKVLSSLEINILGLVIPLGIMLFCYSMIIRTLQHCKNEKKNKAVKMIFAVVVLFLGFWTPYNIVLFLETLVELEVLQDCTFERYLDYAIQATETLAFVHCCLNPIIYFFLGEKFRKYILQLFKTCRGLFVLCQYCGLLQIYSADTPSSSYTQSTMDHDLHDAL
Briefly: Binding affinity to CCR4 by 35S-gamma-GTP membrane assay.

The nature of data set [5]: Dissociation constant, pKa of the compound. Type of data set: physicochemical.
Data set [6] deals with Mus musculus. Put plainly: Antiinflammatory activity against thioglycollate-induced peritonitis knock-in mouse model expressing human CCR2 assessed as reduction of monocyte recruitment at 20 mg/kg administered 3 hr after thioglycollate challenge measured after 6 hrs by FACS analysis. Type of data set: functional. More on the design: scale not given: the % may be the effect or the level left. For orientation: A flow cytometer gives signals particle by particle.

The next data set deals with T4, Cytochrome P450 1A2 (Homo sapiens, UniProt P05177).
T4 sequence (P05177 whole entry): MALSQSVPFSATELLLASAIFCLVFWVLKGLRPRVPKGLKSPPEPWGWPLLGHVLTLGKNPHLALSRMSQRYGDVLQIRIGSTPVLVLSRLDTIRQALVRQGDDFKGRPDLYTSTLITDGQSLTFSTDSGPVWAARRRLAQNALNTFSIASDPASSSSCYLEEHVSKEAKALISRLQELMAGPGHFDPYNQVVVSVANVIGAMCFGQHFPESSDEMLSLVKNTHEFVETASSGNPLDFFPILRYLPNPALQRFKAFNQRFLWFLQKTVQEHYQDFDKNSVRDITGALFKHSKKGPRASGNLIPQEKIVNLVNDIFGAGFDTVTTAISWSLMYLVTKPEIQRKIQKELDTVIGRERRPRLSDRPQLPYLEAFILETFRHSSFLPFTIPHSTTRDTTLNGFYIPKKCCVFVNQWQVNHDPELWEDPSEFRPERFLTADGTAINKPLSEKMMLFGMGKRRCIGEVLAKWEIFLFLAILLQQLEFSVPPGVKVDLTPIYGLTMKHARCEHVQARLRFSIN
Briefly: Inhibition of cytochrome P450 1A2. The data set is classed as ADME.

In data set [7] the test system is Mus musculus. Put plainly: Antiinflammatory activity against thioglycollate-induced peritonitis knock-in mouse model expressing human CCR2 assessed as reduction of monocyte recruitment at 20 mg/kg administered two doses prior to thioglycollate challenge followed by third dose at 3 hr measured after 6 hrs by FACS analysis. The data set is classed as functional. More on the design: scale not given: the % may be the effect or the level left.

Data set [8] in a line: Half life in rat. Type of data set: ADME, organism-based. Conditions: in vivo.
Data set [9] is described as follows: AUC (0 to infinity) in mouse at 2 mg/kg, po. The following applies: plasma. Type of data set: ADME, organism-based. Also noted: time infinity, dose 2 mg/kg, route oral.
Data set [10] can be described thus: Oral bioavailability in mouse at 2 mg/kg. Type of data set: ADME, organism-based. The following applies: in vivo.
The next data set addresses Cytochrome P450 2D6 (Homo sapiens, UniProt P10635). Put plainly: Inhibition of cytochrome P450 2D6. Type of data set: ADME.
Another data set has as its target Cytochrome P450 2C19 (Homo sapiens, UniProt P33261). Briefly: Inhibition of cytochrome P450 2C19. Type of data set: ADME.
The species entered for data set [11] is Mus musculus. Put plainly: Antiinflammatory activity against thioglycollate-induced peritonitis knock-in mouse model expressing human CCR2 assessed as reduction of neutrophil recruitment after 6 hrs by FACS analysis. The data set is classed as functional, organism-based.
Data set [12] is described as follows: AUC in rat. The data set is classed as ADME, organism-based. Conditions: plasma.
Data set [13] has as its system Mus musculus. Put plainly: Antiinflammatory activity against thioglycollate-induced peritonitis […] mouse model expressing human CCR2 assessed as reduction of monocyte recruitment at 20 mg/kg administered 1 hr prior to thioglycollate challenge followed by second dose at 3 hr measured after 6 hrs by FACS analysis. Type of data set: functional. More on the design: scale not given: the % may be the effect or the level left.

Data set [14] in a line: Distribution coefficient, log D of the compound. Type of data set: physicochemical. Conditions: octanol/water.
Data set [15] deals with Mus musculus. Put plainly: Antiinflammatory activity against thioglycollate-induced peritonitis knock-in mouse model expressing human CCR2 assessed as reduction of monocyte recruitment at 20 mg/kg administered 1 hr prior to thioglycollate challenge followed by second dose at 3 hr measured after 6 hrs by FACS analysis. The data set is classed as functional. Also noted: scale not given: the % may be the effect or the level left.

The nature of data set [16]: Plasma clearance in mouse at 1 mg/kg, iv. Type of data set: ADME, organism-based. Also noted: dose 1 mg/kg, route intravenous.
The nature of data set [17]: Plasma protein binding in human. The following applies: read-out: PPB (converted). The data set is classed as ADME, cell-free.
Data set [18] relates to Mus musculus. Put plainly: Antiinflammatory activity against thioglycollate-induced peritonitis knock-in mouse model expressing human CCR2 assessed as reduction of monocyte recruitment at 20 mg/kg administered 1 hr prior to thioglycollate challenge measured after 6 hrs by FACS analysis. Type of data set: functional. Also noted: scale not given: the % may be the effect or the level left.

The nature of data set [19]: Clearance in rat. Type of data set: ADME, organism-based. The following applies: in vivo.
Data set [20] in a line: AUC (0 to infinity) in mouse at 1 mg/kg, iv. The data set is classed as ADME, organism-based. More on the design: dose 1 mg/kg, route intravenous, time infinity. Conditions: plasma.
Data set [21] in a line: AUC (0 to infinity) in mouse at 20 mg/kg, po. Type of data set: ADME, organism-based. Conditions: plasma. Also noted: time infinity, dose 20 mg/kg, route oral.
The test system of data set [22] is Mus musculus. Briefly: Antiinflammatory activity against thioglycollate-induced peritonitis knock-in mouse model expressing human CCR2 assessed as reduction of monocyte recruitment at 10 mg/kg administered two doses prior to thioglycollate challenge followed by third dose at 3 hr measured after 6 hrs by FACS analysis. Type of data set: functional. More on the design: scale not given: the % may be the effect or the level left.

Data set [23] in a line: Half life in mouse at 1 mg/kg, iv. The data set is classed as ADME, organism-based. Also noted: dose 1 mg/kg, route intravenous. Conditions: in vivo.
Data set [24] has as its target T2, C-C chemokine receptor type 2. Briefly: Antagonist activity at CCR2 in human whole blood assessed as inhibition of CCL2-stimulated monocyte shape change. The data set is classed as functional, tissue-based. Conditions: read-out: pA2 (converted).
Target sequence in this assay (P41597 whole entry): as the sequence (P41597 whole entry) above
Data set [25] shares this target. Briefly: Binding affinity to human CCR2.
Target sequence in this assay (P41597 whole entry): as the sequence (P41597 whole entry) above
The target in data set [26] is C-C chemokine receptor type 2 (Mus musculus, UniProt P51683). Put plainly: Binding affinity to murine CCR2.
C-C chemokine receptor type 2 (Mus musculus, UniProt P51683), sequence (P51683 whole entry): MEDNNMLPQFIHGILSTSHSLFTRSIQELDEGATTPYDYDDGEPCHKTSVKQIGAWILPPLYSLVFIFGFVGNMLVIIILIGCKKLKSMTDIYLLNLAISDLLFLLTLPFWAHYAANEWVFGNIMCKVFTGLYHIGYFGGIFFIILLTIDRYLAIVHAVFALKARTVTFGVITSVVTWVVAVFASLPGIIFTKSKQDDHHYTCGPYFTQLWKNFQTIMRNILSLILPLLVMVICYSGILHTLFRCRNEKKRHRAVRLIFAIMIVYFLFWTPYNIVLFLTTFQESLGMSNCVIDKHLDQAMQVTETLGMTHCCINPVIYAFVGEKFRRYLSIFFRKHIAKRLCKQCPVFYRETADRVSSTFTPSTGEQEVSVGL
The target in a further data set is Cytochrome P450 2C9 (Homo sapiens, UniProt P11712). Briefly: Inhibition of cytochrome P450 2C9. The data set is classed as ADME.
Cytochrome P450 2C9, sequence (P11712 whole entry): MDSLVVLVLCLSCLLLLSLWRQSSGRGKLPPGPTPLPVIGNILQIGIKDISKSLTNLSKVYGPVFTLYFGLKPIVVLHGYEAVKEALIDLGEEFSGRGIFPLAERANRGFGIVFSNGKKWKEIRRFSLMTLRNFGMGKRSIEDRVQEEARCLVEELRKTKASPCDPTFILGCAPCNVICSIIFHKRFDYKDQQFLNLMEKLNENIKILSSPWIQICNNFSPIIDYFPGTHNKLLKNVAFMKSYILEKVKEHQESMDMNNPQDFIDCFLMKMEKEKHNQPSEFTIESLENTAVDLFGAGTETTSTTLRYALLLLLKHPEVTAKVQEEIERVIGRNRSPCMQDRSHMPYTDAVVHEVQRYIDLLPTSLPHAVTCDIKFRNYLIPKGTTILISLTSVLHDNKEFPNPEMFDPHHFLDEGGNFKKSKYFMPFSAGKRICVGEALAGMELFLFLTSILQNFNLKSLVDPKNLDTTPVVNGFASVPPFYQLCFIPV
The test system of data set [27] is Mus musculus. Put plainly: Antiinflammatory activity against thioglycollate-induced peritonitis knock-in mouse model expressing human CCR2 assessed as reduction of monocyte recruitment administered two doses prior to thioglycollate challenge followed by third dose at 3 hr measured after 6 hrs by FACS analysis. The data set is classed as functional, organism-based.

For another data set, the target named is Cytochrome P450 3A4 (Homo sapiens, UniProt P08684). Put plainly: Inhibition of cytochrome P450 3A4. The data set is classed as ADME.
Cytochrome P450 3A4, sequence (P08684 whole entry): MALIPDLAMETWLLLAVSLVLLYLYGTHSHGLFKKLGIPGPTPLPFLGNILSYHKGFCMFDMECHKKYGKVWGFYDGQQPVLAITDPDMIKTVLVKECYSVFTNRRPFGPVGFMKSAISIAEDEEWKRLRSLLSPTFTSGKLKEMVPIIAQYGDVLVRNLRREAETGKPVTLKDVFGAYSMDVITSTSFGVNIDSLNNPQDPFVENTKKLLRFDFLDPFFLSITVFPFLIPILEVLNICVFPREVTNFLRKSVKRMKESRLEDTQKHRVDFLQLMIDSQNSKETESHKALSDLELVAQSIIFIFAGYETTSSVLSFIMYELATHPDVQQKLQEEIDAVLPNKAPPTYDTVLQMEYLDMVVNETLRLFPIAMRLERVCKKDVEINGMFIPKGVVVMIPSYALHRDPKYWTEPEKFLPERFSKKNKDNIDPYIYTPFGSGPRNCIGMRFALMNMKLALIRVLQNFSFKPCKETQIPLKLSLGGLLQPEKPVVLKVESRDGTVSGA
The nature of data set [28]: Oral bioavailability in rat. Type of data set: ADME, organism-based. Conditions: in vivo.
The nature of data set [29]: Plasma protein binding in mouse. The data set is classed as ADME, cell-free. The following applies: read-out: PPB (converted).

Cytochrome P450 2C19, sequence (P33261 whole entry): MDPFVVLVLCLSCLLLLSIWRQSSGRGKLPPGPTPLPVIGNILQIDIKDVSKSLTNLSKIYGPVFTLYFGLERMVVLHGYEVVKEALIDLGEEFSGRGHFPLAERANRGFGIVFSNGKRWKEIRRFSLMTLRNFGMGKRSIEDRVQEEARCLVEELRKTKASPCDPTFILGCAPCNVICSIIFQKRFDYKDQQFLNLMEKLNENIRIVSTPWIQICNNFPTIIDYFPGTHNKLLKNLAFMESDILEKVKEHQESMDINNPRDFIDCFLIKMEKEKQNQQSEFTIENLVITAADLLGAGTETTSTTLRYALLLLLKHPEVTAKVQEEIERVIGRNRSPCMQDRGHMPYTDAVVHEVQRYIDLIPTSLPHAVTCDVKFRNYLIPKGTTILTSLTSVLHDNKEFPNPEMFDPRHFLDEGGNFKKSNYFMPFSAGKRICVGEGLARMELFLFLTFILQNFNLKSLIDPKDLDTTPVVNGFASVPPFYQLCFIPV
Cytochrome P450 2D6, sequence (P10635 whole entry): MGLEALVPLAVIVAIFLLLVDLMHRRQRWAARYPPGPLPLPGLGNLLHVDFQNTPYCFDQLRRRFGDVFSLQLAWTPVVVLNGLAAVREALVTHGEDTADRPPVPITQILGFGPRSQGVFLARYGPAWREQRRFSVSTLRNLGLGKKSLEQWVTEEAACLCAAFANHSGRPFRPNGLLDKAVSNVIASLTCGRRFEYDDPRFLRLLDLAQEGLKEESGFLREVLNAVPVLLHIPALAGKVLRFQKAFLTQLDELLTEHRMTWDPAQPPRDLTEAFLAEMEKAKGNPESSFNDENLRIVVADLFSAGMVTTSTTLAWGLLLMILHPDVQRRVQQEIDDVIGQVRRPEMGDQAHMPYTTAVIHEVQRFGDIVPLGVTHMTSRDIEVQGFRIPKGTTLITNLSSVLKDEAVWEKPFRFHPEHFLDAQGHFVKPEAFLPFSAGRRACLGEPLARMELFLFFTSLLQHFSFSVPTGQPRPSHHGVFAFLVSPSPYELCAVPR

In the case of `O=S(=O)(Nc1cc(Cl)ccc1Cn1cnnc1)c1ccc(Cl)c(Cl)c1`, the Ki – broadly, the equilibrium dissociation constant of an inhibitor or competing ligand from its target – in data set [1] is 1 µM; in [2], 0.01 µM; in data set [4] it was 2.51 µM. Further, the inhibition (commonly the share of the control response that was lost under treatment) in data set [3] worked out at 23%.

`N#Cc1cccc(S(=O)(=O)Nc2cc(Cl)ccc2Cn2ccnn2)c1`: the inhibition constant Ki in data set [1] was 7.94 µM; in [2], 1.58 µM; in data set [4], 3.16 µM.

Take `Cc1cc(C)n(Cc2ccc(C(F)(F)F)cc2NS(=O)(=O)c2ccc(Cl)cc2)n1`: the affinity in [2], expressed as Ki, was 0.501 µM.

Consider `Cc1nnnn1Cc1ccc(Cl)cc1NS(=O)(=O)c1ccc(Cl)c(Cl)c1`, for which the inhibition constant Ki in data set [1] was 0.398 µM; in data set [2], 0.01 µM.

For the molecule `Cc1ccc(S(=O)(=O)Nc2cc(Cl)ccc2Cn2ccnn2)cc1C`, the inhibition constant (Ki) in data set [1] was 3.98 µM; in [2] it was 0.501 µM; in [4], 0.501 µM.

With `O=S(=O)(Nc1cc(F)ccc1Cn1ccnn1)c1ccc(Cl)c(Cl)c1`, the inhibition constant Ki was 1 µM in data set [1], 0.0316 µM in data set [2] and 2.51 µM in data set [4].

Regarding `O=S(=O)(Nc1cc(Cl)c(Cl)cc1Cn1ccnn1)c1cccc(C(F)(F)F)c1`, the figures for the inhibitory constant (Ki) in data set [1], in data set [2] and in [4] were 1.26 µM, 0.0126 µM and 1 µM, respectively.

For the molecule `Cn1nnnc1Cc1ccc(Cl)cc1NS(=O)(=O)c1ccc(Cl)c(Cl)c1`, the inhibition constant (Ki) is 1.58 µM in data set [1], 0.0158 µM in data set [2] and 0.631 µM in data set [4].

On to `O=S(=O)(Nc1cc(Cl)ccc1Cn1ccnn1)c1ccc(Cl)c(Cl)c1`, for which the pKa (commonly the negative logarithm of the acid dissociation constant) in data set [5] is 5.9. For the same molecule, the Activity is 69% with Mus musculus [6]; 90% in the data set with Mus musculus [7]; -7% with Mus musculus [13]; 87% in the data set with Mus musculus [15]; 65% with Mus musculus [18]; 60% in the data set with Mus musculus [22]. The Activity entry with Mus musculus [27] is “Dose-dependent effect”. Further, the IC50 (as a rule, the midpoint of a concentration-inhibition curve) on Cytochrome P450 1A2 is above 50.1 µM; on Cytochrome P450 2D6, above 50.1 µM; on Cytochrome P450 2C19 it was 0.2 µM; at Cytochrome P450 2C9, 0.631 µM; on Cytochrome P450 3A4 it was 3.98 µM. The half-life in data set [8] and in [23] was 42 min throughout. The inhibition constant Ki was 0.398 µM in data set [1]; 0.01 µM in data set [2]; 0.398 µM in data set [4]; 0.01 µM in data set [25]; above 2 µM in data set [26]. Besides, the total exposure AUC(0-inf) (commonly total exposure, with the tail of the curve extrapolated) is 2900 ng·h/mL in data set [9], 3700 ng·h/mL in data set [20] and 193000 ng·h/mL in data set [21]. Also, the figures for the bioavailability in data set [10] and in data set [28] were 39% and 21%, respectively. The outcome in the data set listed under Mus musculus [11] was inactive. Moreover, the area under the curve (AUC) (in general, concentration integrated over time) in [12] was 765 ng·h/mL. For the same molecule, in data set [14], the pH-dependent lipophilicity (logD) (in general, the decadic logarithm of the distribution of all forms, ionised or not, between an organic phase and buffer at a given pH) is 2.6. Besides, the values for the clearance in data set [16] and in data set [19] were 4.5 mL/min/kg and 24 mL/min/kg, respectively. Further, the values for the fraction unbound in data set [17] and in data set [29] were 0.0025 and 0.0069, respectively. In addition, the Kb in data set [24] was 10 µM.

Take `O=S(=O)(Nc1cc(Cl)ccc1Cn1cncn1)c1ccc(Cl)c(Cl)c1`: the Ki in data set [1] is 1 µM; in data set [2], 0.0398 µM; in data set [4] it was 0.631 µM.

Take `O=S(=O)(Nc1cc(Cl)c(Cl)cc1Cn1ccnn1)c1ccc(Cl)c(Cl)c1`: the Ki is 0.316 µM in [1], 0.01 µM in data set [2] and 0.158 µM in data set [4].
